According to patent US9796711B2, “Substituted pyrazolo[3,4-b]pyridin-6-carboxylic acids and method of use” (AbbVie S.àr.l., priority 2015, dated 2017):

Experiments:
ΔF508-CFTR [1] = molecular target: T1, ΔF508-CFTR (Homo sapiens, UniProt P13569, DEL508-508); experiment: CFTR cell surface levels using HRP-tagged ΔF508-CFTR expressing CFBE cells, intrinsic corrector capacity; format: cell-based
T1 construct: host or cells: CFBE41o-, doxycycline-inducible
Method in brief: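 Here the cells express ΔF508-CFTR with horseradish peroxidase inserted in extracellular loop 4, so only rescued channel at the surface gives luminescent signal. Compounds act on their own, 20 h at the reduced temperature of 33 °C; values are percent activity relative to DMSO and a 3 μM corrector.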

ΔF508-CFTR [2] = molecular target: T1, ΔF508-CFTR; experiment: CFTR cell surface levels using HRP-tagged ΔF508-CFTR expressing CFBE cells, in the presence of a co-corrector; format: cell-based
Method in brief: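 Cells were seeded with 0.5 μg/mL doxycycline and held 68 h at 37 °C. Test compounds plus 3 μM co-corrector (final 0.1% DMSO) were then added for 20 h at 33 °C. Washed cells received HRP substrate, and luminescence was normalized between DMSO and 3 μM co-corrector controls.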

[3] = HRP-tagged ΔF508-CFTR expressing CFBE cells, intrinsic corrector capacity (no co-corrector), 33° C., 20 hours
[4] = HRP-tagged ΔF508-CFTR expressing CFBE cells, intrinsic corrector capacity (no co-corrector), 33° C., 20 hours, read-out: EC50
[5] = HRP-tagged ΔF508-CFTR expressing CFBE cells, in the presence of 3 μM co-corrector
[6] = HRP-tagged ΔF508-CFTR expressing CFBE cells, in the presence of 3 μM co-corrector, read-out: EC50

T1 sequence (P13569 with tags, fused parts or gaps DEL508-508): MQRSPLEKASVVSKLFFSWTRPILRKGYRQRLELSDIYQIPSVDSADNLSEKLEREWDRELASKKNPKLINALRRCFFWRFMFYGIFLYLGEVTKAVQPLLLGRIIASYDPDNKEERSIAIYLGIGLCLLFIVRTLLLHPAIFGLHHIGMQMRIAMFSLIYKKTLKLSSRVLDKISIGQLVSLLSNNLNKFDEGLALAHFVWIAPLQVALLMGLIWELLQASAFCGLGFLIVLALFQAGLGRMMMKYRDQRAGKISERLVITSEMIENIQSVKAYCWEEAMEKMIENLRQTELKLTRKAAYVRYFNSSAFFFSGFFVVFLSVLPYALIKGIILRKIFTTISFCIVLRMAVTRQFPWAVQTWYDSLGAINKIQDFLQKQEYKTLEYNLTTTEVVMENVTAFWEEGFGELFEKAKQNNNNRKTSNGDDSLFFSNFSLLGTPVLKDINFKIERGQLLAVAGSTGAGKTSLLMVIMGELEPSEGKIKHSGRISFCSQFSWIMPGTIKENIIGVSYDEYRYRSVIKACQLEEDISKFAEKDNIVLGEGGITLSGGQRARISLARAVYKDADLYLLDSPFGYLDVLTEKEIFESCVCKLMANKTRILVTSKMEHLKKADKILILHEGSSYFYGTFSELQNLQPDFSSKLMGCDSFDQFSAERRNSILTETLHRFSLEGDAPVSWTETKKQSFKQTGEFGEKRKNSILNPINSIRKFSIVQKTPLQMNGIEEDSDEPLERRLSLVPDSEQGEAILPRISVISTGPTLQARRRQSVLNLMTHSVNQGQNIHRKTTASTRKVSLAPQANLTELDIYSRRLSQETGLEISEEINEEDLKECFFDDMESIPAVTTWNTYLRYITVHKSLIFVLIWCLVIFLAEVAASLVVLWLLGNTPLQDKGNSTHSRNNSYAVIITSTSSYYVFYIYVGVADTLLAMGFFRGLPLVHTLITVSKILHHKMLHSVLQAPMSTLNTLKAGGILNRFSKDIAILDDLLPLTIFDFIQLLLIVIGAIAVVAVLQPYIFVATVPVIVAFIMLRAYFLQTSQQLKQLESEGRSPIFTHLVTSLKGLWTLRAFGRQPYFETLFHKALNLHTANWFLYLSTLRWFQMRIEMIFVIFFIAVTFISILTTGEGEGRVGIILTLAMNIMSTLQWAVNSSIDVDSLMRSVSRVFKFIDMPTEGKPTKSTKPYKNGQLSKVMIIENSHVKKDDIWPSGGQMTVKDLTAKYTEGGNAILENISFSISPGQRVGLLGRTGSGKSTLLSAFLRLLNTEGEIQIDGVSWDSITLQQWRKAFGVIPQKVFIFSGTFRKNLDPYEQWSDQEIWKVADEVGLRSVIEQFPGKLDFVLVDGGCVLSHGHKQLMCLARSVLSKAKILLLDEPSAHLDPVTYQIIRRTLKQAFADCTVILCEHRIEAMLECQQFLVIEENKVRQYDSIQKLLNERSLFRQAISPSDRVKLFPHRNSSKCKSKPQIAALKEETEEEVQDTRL

COCC(COC)Oc1cc(C(=O)O)nc2c1c(C(C)C)nn2-c1ccc(F)cc1 [compound 654, 4-[(1,3-dimethoxypropan-2-yl)oxy]-1-(4-fluorophenyl)-3-(propan-2-yl)-1H-pyrazolo[3,4-b]pyridine-6-carboxylic acid]
% Activation (ΔF508-CFTR [1]; [3]): 66.19% | EC50 (ΔF508-CFTR [1]; [4]): 3330 nM | % Activation (ΔF508-CFTR [2]; [5]): 245.5% | EC50 (ΔF508-CFTR [2]; [6]): 3330 nM

O=C(O)c1cc(NC[C@@H]2CCCO2)c2c(C3CCC3)nn(-c3ccccc3)c2n1 [compound 655, 3-cyclobutyl-4-({[(2S)-oxolan-2-yl]methyl}amino)-1-phenyl-1H-pyrazolo[3,4-b]pyridine-6-carboxylic acid]
EC50 (ΔF508-CFTR [1]): 3100 nM | % Activation (ΔF508-CFTR [1]; [3]): 165.6% | EC50 (ΔF508-CFTR [2]): 1130 nM | % Activation (ΔF508-CFTR [2]; [5]): 340.2%

CC(C)c1nn(-c2ccc(F)cc2)c2nc(C(=O)O)cc(N3CCC(C4CCN(C)CC4)CC3)c12 [compound 661, 1-(4-fluorophenyl)-4-(1′-methyl [4,4′-bipiperidin]-1-yl)-3-(propan-2-yl)-1H-pyrazolo[3,4-b]pyridine-6-carboxylic acid]
% Activation (ΔF508-CFTR [1]; [3]): 315% | EC50 (ΔF508-CFTR [1]; [4]): 565 nM | % Activation (ΔF508-CFTR [2]; [5]): 522.3% | EC50 (ΔF508-CFTR [2]; [6]): 227 nM

CC(C)(C)OC(=O)NC[C@@H]1CCN(c2cc(C(=O)O)nc3c2c(C2CCC2)nn3-c2ccccc2)C1 [compound 671, 4-[(3S)-3-{[(tert-butoxycarbonyl)amino]methyl}pyrrolidin-1-yl]-3-cyclobutyl-1-phenyl-1H-pyrazolo[3,4-b]pyridine-6-carboxylic acid]
EC50 (ΔF508-CFTR [1]): 1610 nM | % Activation (ΔF508-CFTR [1]; [3]): 190.1% | EC50 (ΔF508-CFTR [2]): 943 nM | % Activation (ΔF508-CFTR [2]; [5]): 357.4%

CC(C)(C)OC(=O)NC[C@H]1CCN(c2cc(C(=O)O)nc3c2c(C2CCC2)nn3-c2ccccc2)C1 [compound 672, 4-[(3R)-3-{[(tert-butoxycarbonyl)amino]methyl}pyrrolidin-1-yl]-3-cyclobutyl-1-phenyl-1H-pyrazolo[3,4-b]pyridine-6-carboxylic acid]
EC50 (ΔF508-CFTR [1]): 748 nM | % Activation (ΔF508-CFTR [1]; [3]): 141.6% | EC50 (ΔF508-CFTR [2]): 553 nM | % Activation (ΔF508-CFTR [2]; [5]): 343.15%

CN(C[C@@H]1CCN(c2cc(C(=O)O)nc3c2c(C2CCC2)nn3-c2ccccc2)C1)C(=O)OC(C)(C)C [compound 674, 4-[(3R)-3-{[(tert-butoxycarbonyl)(methyl)amino]methyl}pyrrolidin-1-yl]-3-cyclobutyl-1-phenyl-1H-pyrazolo[3,4-b]pyridine-6-carboxylic acid]
% Activation (ΔF508-CFTR [1]; [3]): 158.5% | EC50 (ΔF508-CFTR [1]; [4]): 521 nM | % Activation (ΔF508-CFTR [2]; [5]): 323.85% | EC50 (ΔF508-CFTR [2]; [6]): 380 nM

CN(C[C@H]1CCN(c2cc(C(=O)O)nc3c2c(C2CCC2)nn3-c2ccccc2)C1)C(=O)OC(C)(C)C [compound 675, 4-[(3S)-3-{[(tert-butoxycarbonyl)(methyl)amino]methyl}pyrrolidin-1-yl]-3-cyclobutyl-1-phenyl-1H-pyrazolo[3,4-b]pyridine-6-carboxylic acid]
% Activation (ΔF508-CFTR [1]; [3]): 118.8% | EC50 (ΔF508-CFTR [1]; [4]): 659 nM | % Activation (ΔF508-CFTR [2]; [5]): 303.65% | EC50 (ΔF508-CFTR [2]; [6]): 1050 nM

CNC[C@@H]1CCN(c2cc(C(=O)O)nc3c2c(C2CCC2)nn3-c2ccccc2)C1 [compound 676, 3-cyclobutyl-4-{(3S)-3-[(methylamino)methyl]pyrrolidin-1-yl}-1-phenyl-1H-pyrazolo[3,4-b]pyridine-6-carboxylic acid]
% Activation (ΔF508-CFTR [1]; [3]): 35.03% | EC50 (ΔF508-CFTR [1]; [4]): 5000 nM | % Activation (ΔF508-CFTR [2]; [5]): 164.55% | EC50 (ΔF508-CFTR [2]; [6]): 892 nM

COCC1CCN(c2cc(C(=O)O)nc3c2c(C(C)C)nn3-c2cc(C)nc(C)c2)CC1 [compound 677, 1-(2,6-dimethylpyridin-4-yl)-4-[4-(methoxymethyl)piperidin-1-yl]-3-(propan-2-yl)-1H-pyrazolo[3,4-b]pyridine-6-carboxylic acid]
% Activation (ΔF508-CFTR [1]; [3]): 67.38% | EC50 (ΔF508-CFTR [1]; [4]): 1570 nM | % Activation (ΔF508-CFTR [2]; [5]): 260.45% | EC50 (ΔF508-CFTR [2]; [6]): 6550 nM

COCC1CCN(c2cc(C(=O)O)nc3c2c(C2CCC2)nn3-c2ccnc(OC)c2)CC1 [compound 678, 3-cyclobutyl-4-[4-(methoxymethyl)piperidin-1-yl]-1-(2-methoxypyridin-4-yl)-1H-pyrazolo[3,4-b]pyridine-6-carboxylic acid]
% Activation (ΔF508-CFTR [1]; [3]): 181.5% | EC50 (ΔF508-CFTR [1]; [4]): 230 nM | % Activation (ΔF508-CFTR [2]; [5]): 373.3% | EC50 (ΔF508-CFTR [2]; [6]): 91.8 nM

O=C(O)c1cc(N2CCN(CC3CCCO3)CC2)c2c(C3CCC3)nn(-c3ccccc3)c2n1 (centres unmarked) [compound 681, 3-cyclobutyl-4-{4-[(oxolan-2-yl)methyl]piperazin-1-yl}-1-phenyl-1H-pyrazolo[3,4-b]pyridine-6-carboxylic acid]
% Activation (ΔF508-CFTR [1]; [3]): 220.95% | EC50 (ΔF508-CFTR [1]; [4]): 408 nM | % Activation (ΔF508-CFTR [2]; [5]): 373.05% | EC50 (ΔF508-CFTR [2]; [6]): 197 nM

COCC(C)N1CCN(c2cc(C(=O)O)nc3c2c(C2CCC2)nn3-c2ccccc2)CC1 (centres unmarked) [compound 682, 3-cyclobutyl-4-[4-(1-methoxypropan-2-yl)piperazin-1-yl]-1-phenyl-1H-pyrazolo[3,4-b]pyridine-6-carboxylic acid]
% Activation (ΔF508-CFTR [1]; [3]): 172.9% | EC50 (ΔF508-CFTR [1]; [4]): 180 nM | % Activation (ΔF508-CFTR [2]; [5]): 368.9% | EC50 (ΔF508-CFTR [2]; [6]): 116 nM

O=C(O)c1cc(N2CCN(CC3OCCO3)CC2)c2c(C3CCC3)nn(-c3ccccc3)c2n1 [compound 684, 3-cyclobutyl-4-{4-[(1,3-dioxolan-2-yl)methyl]piperazin-1-yl}-1-phenyl-1H-pyrazolo[3,4-b]pyridine-6-carboxylic acid]
% Activation (ΔF508-CFTR [1]; [3]): 230.2% | EC50 (ΔF508-CFTR [1]; [4]): 380 nM | % Activation (ΔF508-CFTR [2]; [5]): 384.65% | EC50 (ΔF508-CFTR [2]; [6]): 236 nM

COCCOC1CCN(c2cc(C(=O)O)nc3c2c(C2CCC2)nn3-c2ccccc2)CC1 [compound 685, 3-cyclobutyl-4-[4-(2-methoxyethoxy)piperidin-1-yl]-1-phenyl-1H-pyrazolo[3,4-b]pyridine-6-carboxylic acid]
% Activation (ΔF508-CFTR [1]; [3]): 260.5% | EC50 (ΔF508-CFTR [1]; [4]): 164 nM | % Activation (ΔF508-CFTR [2]; [5]): 510.3% | EC50 (ΔF508-CFTR [2]; [6]): 245 nM

O=C(O)c1cc(N2CCC(CN3CCCCC3)CC2)c2c(C3CCC3)nn(-c3ccccc3)c2n1 [compound 686, 3-cyclobutyl-1-phenyl-4-{4-[(piperidin-1-yl)methyl]piperidin-1-yl}-1H-pyrazolo[3,4-b]pyridine-6-carboxylic acid]
% Activation (ΔF508-CFTR [1]; [3]): 240.4% | EC50 (ΔF508-CFTR [1]; [4]): 1670 nM | % Activation (ΔF508-CFTR [2]; [5]): 431.1% | EC50 (ΔF508-CFTR [2]; [6]): 237 nM

CC1CN(C2CCN(c3cc(C(=O)O)nc4c3c(C3CCC3)nn4-c3ccccc3)CC2)CC(C)O1 (centres unmarked) [compound 688, 3-cyclobutyl-4-[4-(2,6-dimethylmorpholin-4-yl)piperidin-1-yl]-1-phenyl-1H-pyrazolo[3,4-b]pyridine-6-carboxylic acid]
% Activation (ΔF508-CFTR [1]; [3]): 322.5% | EC50 (ΔF508-CFTR [1]; [4]): 247 nM | % Activation (ΔF508-CFTR [2]; [5]): 532.6% | EC50 (ΔF508-CFTR [2]; [6]): 247 nM

CCN(CC)C1CCN(c2cc(C(=O)O)nc3c2c(C2CCC2)nn3-c2ccccc2)CC1 [compound 689, 3-cyclobutyl-4-[4-(diethylamino)piperidin-1-yl]-1-phenyl-1H-pyrazolo[3,4-b]pyridine-6-carboxylic acid]
% Activation (ΔF508-CFTR [1]; [3]): 182.7% | EC50 (ΔF508-CFTR [1]; [4]): 1570 nM | % Activation (ΔF508-CFTR [2]; [5]): 329% | EC50 (ΔF508-CFTR [2]; [6]): 803 nM

CN(CCCN(C)C1CCCCC1)c1cc(C(=O)O)nc2c1c(C1CCC1)nn2-c1ccccc1 [compound 690, 3-cyclobutyl-4-[{3-[cyclohexyl(methyl)amino]propyl}(methyl)amino]-1-phenyl-1H-pyrazolo[3,4-b]pyridine-6-carboxylic acid]
% Activation (ΔF508-CFTR [1]; [3]): 136.1% | EC50 (ΔF508-CFTR [1]; [4]): 1670 nM | % Activation (ΔF508-CFTR [2]; [5]): 318.25% | EC50 (ΔF508-CFTR [2]; [6]): 2760 nM

CC(C)CN1C[C@@H]2CN(c3cc(C(=O)O)nc4c3c(C3CCC3)nn4-c3ccccc3)C[C@@H]2C1 [compound 692, 3-cyclobutyl-4-[(3aR,6aS)-5-(2-methylpropyl)hexahydropyrrolo[3,4-c]pyrrol-2(1H)-yl]-1-phenyl-1H-pyrazolo[3,4-b]pyridine-6-carboxylic acid]
% Activation (ΔF508-CFTR [1]; [3]): 208.1% | EC50 (ΔF508-CFTR [1]; [4]): 1670 nM | % Activation (ΔF508-CFTR [2]; [5]): 381.4% | EC50 (ΔF508-CFTR [2]; [6]): 931 nM

O=C(O)c1cc(N2CCC(N3CCCCC3)CC2)c2c(C3CCC3)nn(-c3ccc(F)cc3)c2n1 [compound 693, 4-([1,4′-bipiperidin]-1′-yl)-3-cyclobutyl-1-(4-fluorophenyl)-1H-pyrazolo[3,4-b]pyridine-6-carboxylic acid]
% Activation (ΔF508-CFTR [1]; [3]): 185.9% | EC50 (ΔF508-CFTR [1]; [4]): 1270 nM | % Activation (ΔF508-CFTR [2]; [5]): 392.45% | EC50 (ΔF508-CFTR [2]; [6]): 325 nM

COCCN1CCN(C2CCN(c3cc(C(=O)O)nc4c3c(C3CCC3)nn4-c3ccccc3)CC2)CC1 [compound 694, 3-cyclobutyl-4-{4-[4-(2-methoxyethyl)piperazin-1-yl]piperidin-1-yl}-1-phenyl-1H-pyrazolo[3,4-b]pyridine-6-carboxylic acid]
% Activation (ΔF508-CFTR [1]; [3]): 177.4% | EC50 (ΔF508-CFTR [1]; [4]): 487 nM | % Activation (ΔF508-CFTR [2]; [5]): 421.9% | EC50 (ΔF508-CFTR [2]; [6]): 535 nM

CCOCCN1CCN(C2CCN(c3cc(C(=O)O)nc4c3c(C(C)C)nn4-c3ccc(F)cc3)CC2)CC1 [compound 745, 4-{4-[4-(2-ethoxyethyl)piperazin-1-yl]piperidin-1-yl}-1-(4-fluorophenyl)-3-(propan-2-yl)-1H-pyrazolo[3,4-b]pyridine-6-carboxylic acid]
% Activation (ΔF508-CFTR [1]; [3]): 239.3% | EC50 (ΔF508-CFTR [1]; [4]): 573 nM | % Activation (ΔF508-CFTR [2]; [5]): 457.5% | EC50 (ΔF508-CFTR [2]; [6]): 191 nM

CC(C)c1nn(-c2ccc(F)cc2)c2nc(C(=O)O)cc(N3CCC(N4CCN(C)CC4)CC3)c12 [compound 753, 1-(4-fluorophenyl)-4-[4-(4-methylpiperazin-1-yl)piperidin-1-yl]-3-(propan-2-yl)-1H-pyrazolo[3,4-b]pyridine-6-carboxylic acid]
% Activation (ΔF508-CFTR [1]; [3]): 215% | EC50 (ΔF508-CFTR [1]; [4]): 1030 nM | % Activation (ΔF508-CFTR [2]; [5]): 377.6% | EC50 (ΔF508-CFTR [2]; [6]): 301 nM
